row,melting point,SMILES
1,100 to 101 °C,CCCCC[C@H]1CC[C@H](CCCOc2ccc(O)cc2)CC1
2,80 to 82 °C,CNC(=O)CCC(=O)c1ccccc1
3,93 to 94 °C,CCOC(=O)c1cc2c(C)cccc2n1CCNC(=O)OC(C)(C)C
4,174 to 175 °C,COc1cc(-c2cncn2-c2ccc(S(C)(=O)=O)cc2)ccc1C
5,50 to 60 °C,Cc1noc(NS(=O)(=O)c2ccccc2-c2ccc(-c3ncco3)cc2CN(Cc2ccccc2)CC(F)(F)F)c1C
6,145 to 146 °C,CNC(=S)NS(=O)(=O)c1cc(CCNC(=O)c2cc(Cl)ccc2OC)ccc1-c1ccco1
7,118 to 122 °C,CNC(=O)CCCCCc1cccc2cncn12
8,206 to 208 °C,COc1cc2c(c3c1OC(C)(C)C3)C(c1cccc(N3CCN(CC(N)=O)S3(=O)=O)c1)=NC(C)(C)C2
9,126 to 128 °C,O=C(NCCN1CCCCC1)Nc1ccc(-c2nnc(CSCCOc3ccccc3)o2)cc1
10,172 to 174 °C,O=C(c1ccc(F)cc1)N1CCN(S(=O)(=O)c2ccc(Nc3ccnc4cc(C(F)(F)F)ccc34)cc2)CC1
11,84 °C,Clc1ccc(C=C(OC2CCCCC2)n2cncn2)c(Cl)c1
12,189 °C,CN1CCC(N(CCCC2CCCO2)S(=O)(=O)c2ccc(Nc3nccc(Nc4ccc(F)cc4)n3)cc2)CC1 (stereo unspecified)
13,81 to 84 °C,Cc1nc(-n2cc(CCCc3ccccc3)nn2)sc1C(=O)NCc1ccc(F)c(F)c1
14,175 to 176 °C,COc1ccc2c(c1)CN(S(=O)(=O)NC(Cc1cc3c(N)nccc3s1)C(=O)N1CCC(C)CC1)CC2 (stereo unspecified)
15,> 310 °C,CCC(C)NC1=NS(=O)(=O)c2cc(C(=O)O)ccc2N1 (stereo unspecified)
16,141 to 145 °C,Cn1cc(C2=C(c3c4n(c5ccccc35)CC(NC(=O)OC(C)(C)C)CC4)C(=O)OC2=O)c2ccccc21 (stereo unspecified)
17,124 to 126 °C,O=C(N[C@@H](CO)c1nc2cc(Br)ccc2[nH]1)c1ccc(C(=O)N2CC=CC2)c(Cl)c1
18,169 to 170 °C,Cc1nn(-c2ccccc2)c(C)c1CC(N)=O
19,160 to 162 °C,CC#CC(Cc1ccccc1)n1nnc2cc3c(cc2c1=O)OC1CCCN1C3=O (stereo unspecified)
20,113 to 115 °C,Cc1ccc(Oc2c(F)cc(C(F)(F)F)cc2Cl)cc1[N+](=O)[O-]
21,220 to 221 °C,COP(=O)(NC1C(=O)N2C(C(=O)OCc3ccc([N+](=O)[O-])cc3)=C(C=CN3CCCCC3)CSC12)OC (stereo unspecified)

row,melting point,SMILES
1,165 °C,CCOC(=O)c1cn(-c2ccc(F)cn2)c2nc(N3CC(C)NC(C)C3)c(F)cc2c1=O (stereo unspecified)
2,128 to 131 °C,CSC(Nc1cc(Cl)cc(Cl)c1)=C(C#N)S(=O)(=O)c1ccc(Cl)cc1
3,232 °C,O=C(Nc1cccc(S(=O)(=O)NC2CC2)c1)c1cnn2c(C(F)(F)F)cc(-c3ccc(C(F)(F)F)cc3)nc12
4,141 °C,CCOC(=O)c1ccc(-c2ccc(OCCCNC3CC3)c(-c3ccc4c(c3)C(C)(C)CCC4(C)C)c2)cc1
5,165 to 167 °C,CC(=O)c1cc(Nc2ccn(-c3ccccc3)n2)ccc1O
6,154 to 157 °C,CC(Cc1cccc(S(N)(=O)=O)c1)=NO
7,93 to 95 °C,COc1ccnc(CCc2nc3ccc(OC)nc3[nH]2)c1
8,175 to 176 °C,CCOC(=O)c1c(C)cc2[nH]c(=O)n(-c3ccccc3C(F)(F)F)c(=O)c2c1C
9,134 to 135 °C,O=C(NCc1ccccn1)Nc1cc(N2CC(COCc3ccccc3)OC2=O)ccn1 (stereo unspecified)
10,130 °C,CCCCOC(=O)C=Nc1cc(Cl)ccc1C(=O)O
11,282 to 286 °C,O=C(O)c1cn2c3c(cc(Cl)cc3c1=O)CCC2
12,88 °C,CCOc1c(C(O)CCc2ccn(C)c2)c(OCCN2CCCCC2)c(OC)c2occc12 (stereo unspecified)
13,113 to 114 °C,C#Cc1ccc(C(=O)c2ccc3n2CCC3C(=O)OC)cc1 (stereo unspecified)
14,180 to 185 °C,COc1ccc(Cl)c(CC(Nc2nc3ccc(Cl)cc3cc2C(=O)O)C(=O)O)c1 (stereo unspecified)
15,137 to 138 °C,CC(C)OCC1(C(F)(F)F)c2cc(Cl)ccc2Nc2ncc(Cl)cc21 (stereo unspecified)
16,199 to 200 °C,CC1(C2CCCC2)Cc2cc(NCC(=O)O)c(Cl)c(Cl)c2C1=O (stereo unspecified)
17,265 °C,CC(=O)Nc1[nH]cc(-c2ccc(NS(=O)(=O)c3cccc(Cl)c3Cl)cc2)c1C(N)=O
18,78 to 82 °C,O=C1N(CC2CCCO2)c2cccc(Cl)c2C12COc1cc3c(cc12)CCO3 (stereo unspecified)
19,200 to 202 °C,CS(=O)(=O)c1ccc(C(CC2CCCC2)C(=O)Nc2nccs2)cc1F (stereo unspecified)
20,87 to 90 °C,CC(C(=O)c1ccc(OCc2ccccc2)c(OCc2ccccc2)c1)N1CCC(n2c(=O)[nH]c3ccccc32)CC1 (stereo unspecified)
21,150 to 151 °C,CCCCOc1ccc(Nc2cc(Nc3ccc4c(c3)OCCO4)ncc2F)cc1

# Continued, compound first:
row,SMILES,melting point
1,CCCCCOC1CCC(=O)N1 (stereo unspecified),42 to 43 °C
2,COc1ccc2c(Cc3ccc(OC4CCCC4N4CCCCC4)cc3)c(-c3ccc(OCCN4CCCC4)cc3)sc2c1 (stereo unspecified),61 to 64 °C
3,COc1ccc(-c2cnc3[nH]c4ccccc4c3c2)cc1,> 220 °C
4,Cc1cc(-c2nc3ccccc3c(=O)n2-c2ccc(Br)cc2)ccc1OCCO,92 to 93 °C
5,COc1ccc2c(c1)c(CN(O)C(=O)N(C)C)c(C)n2C(=O)c1ccc(Cl)cc1,173 to 174 °C
6,CN1CCC(Oc2ccccc2)(c2ccccc2)CC1,99 to 101 °C
7,COc1cc(C)c(C(=O)c2c(C)cccc2O)c(OC)c1OC,82 to 84 °C
8,Nc1nc2c(c(=O)[nH]1)n(CC(=O)O)c(=O)n2C1OC(CO)C(O)C1O (stereo unspecified),> 230 °C
9,CCOC(=O)c1cc(OC(C)=O)c(OC(C)=O)c(OC(C)=O)c1,76 to 78 °C
10,Cc1nnc(-c2ncn3c2[C@@H]2CCCN2C(=O)c2c(Cl)cccc2-3)o1,253 to 254 °C
11,O=C(Nc1cnccc1C(=O)O)OCc1cc2cc(-c3ccccc3)ccc2o1,236 to 239 °C
12,Cn1ccc2c(ccc3[nH]cc(CCNCc4ccccc4)c32)c1=O,186 to 192 °C
13,CCc1cc2[nH]c(=O)cc(Cl)c2c(CC)n1,172 to 174 °C
14,CC(C)OC(=O)C(C(=O)O)=C1SCCS1,104 to 106 °C
15,COCC(COC)N(C)Cc1ccc(NC(=O)C2=Cc3cc(-c4ccc(C)cc4)ccc3OCC2)cc1,128 to 132 °C
16,COC(=O)c1cc(C(=O)N[C@@H](Cc2ccccc2)[C@H]2CN(C3(c4cccc(C(F)(F)F)c4)CC3)C(=O)O2)n2c1CN(C(=O)OC(C)(C)C)CC2,106 °C
17,Cc1cc(Br)cnc1CCCCNc1ncc(Cc2cccnc2)cc1O,164 to 166 °C
18,CSc1cc(Cl)cc(C(=O)O)c1,148 to 150 °C
19,O=C(O)c1cnn2c(C(F)(F)F)cc(-c3ccc(C(F)(F)F)c(Cl)c3)nc12,244 °C
20,N=C(NC(=O)OCc1ccccc1)c1ccc(C(=O)NCCC(=O)NCCC(=O)OCc2ccccc2)cc1,165 to 166 °C
21,CC1Cc2cc3c(cc2C1)CC(C(=N)NO)C3,194 to 195 °C
22,c1ccc2nc(CCN3CCc4[nH]c5ccccc5c4C3)ccc2c1,195 to 197 °C
23,CCOc1ccc(NC(N)=S)cn1,142 to 146 °C
24,CC(=O)N[C@@H](CC(C)C)C(=O)N[C@@H](CC(C)C)C(=O)N[C@H]1CCCOC1OC(C)=O (stereo partly specified),238 to 240 °C
25,N#CCc1ccc(-c2nc3ccccc3o2)cc1-c1cccc(C#N)c1,175 to 176 °C
26,O=C(O)CCCC(=O)Nc1ccc(N2CCN(C3(c4ccc(-c5ccccc5)cc4)C(=O)NC(=O)NC3=O)CC2)cc1,268 to 269 °C
27,O=C(O)c1ncn2c1CN=C(c1ccccc1)c1cc(Cl)ccc1-2,268 to 270 °C

row,SMILES,melting point
1,CCOC(=O)c1cccn2cc(C(OCC)OCC)nc12,98 to 100 °C
2,COCn1cc(C2=C(C#N)C(c3cccc4nonc34)c3c[nH]nc3N2)c2ccccc21 (stereo unspecified),200 °C
3,N#CCCC(C#N)CSc1ccc(Cl)c(Cl)c1 (stereo unspecified),53 to 55 °C
4,Cn1cc2c(n1)-c1cnn(C)c1CC2,140 to 145 °C
5,COc1cc2c(cc1OC)CC(=O)N(CCCN(C)C[C@H]1Cc3cc(OC)c(OC)cc31)CC2,98 to 100 °C
6,Cc1nnc2n1-c1ccccc1C(c1ccc(Cl)cc1)=NC2NC(=O)Nc1ccccn1 (stereo unspecified),274 to 278 °C
7,COC(=O)C1=CN(CCCc2ccccc2)C=C(C(=O)OC)C1c1ccc(OC)c(OC)c1,107 to 113 °C
8,CN1CCC(=C2c3ccccc3Oc3ccc(C(F)(F)F)cc32)CC1,82 to 83 °C
9,N#Cc1nn(-c2c(Cl)cc(C(F)(F)F)cc2Cl)c(N)c1-c1cc(Cl)cc(Cl)c1,228 to 230 °C
10,CN(C)CCOc1cccc2c1c1cccc3c1n2C(c1ccccc1)CO3 (stereo unspecified),117 to 118 °C
11,Nc1ccc(C=C2c3ccccc3C=Cc3ccccc32)cc1,119 to 120 °C
12,CNCc1nc(-c2ncn3c2CN(C)C(=O)c2c(Cl)cccc2-3)no1,192 to 193 °C
13,N#CSc1nc(Cl)ncc1Cl,160 to 162 °C
14,CC(C)(C)OC(=O)N1CCC=C(C(=O)O)C1,198 to 202 °C
15,Cc1ccc2c(c1)C=Cc1cc(C)ccc1C2c1cn(Cc2ccc(C(=O)O)o2)c(=O)[nH]c1=S,290 to 292 °C
16,CC(Oc1ccc([N+](=O)[O-])cc1)C(=O)O (stereo unspecified),139 to 141 °C
17,CCCn1cc(C(=O)NCc2ccc(Cl)cc2)c(=O)c2cc(C#CCO)ccc21,183 to 184 °C
18,CCCCCCCCCCc1ccc2ccc(C)c(O)c2c1,65 to 67 °C
19,CC(C)CCCC(C)C1CCC2C3CC4(OCCO4)C4CC(O)CCC4(C)C3CCC12C (stereo unspecified),114 to 115 °C
20,COc1cc(C(C)(C)O)c(O)c2c1C(C)(C)CCC2(C)C,140 °C
21,COc1ccc(OC)c(Cc2cc(C)cc(OC)c2C(=O)O)c1,172 to 174 °C
22,CC(C)OC(=O)C=Cc1ccc(Br)cc1,64 to 66 °C
23,COc1cnc(N)c2ccccc12,112 to 114 °C
24,CC(=O)OCC1OC(n2c3ncccc3c3c4c(n5cncc5c32)C(=O)N(C)C4=O)C(OC(C)=O)C(OC(C)=O)C1OC(C)=O (stereo unspecified),204 °C
25,CC(=O)OCCSc1nc(C(C)(C)C)n[nH]1,114 to 115 °C
26,NC(=O)c1cccc2c1nc(-c1c(F)cccc1F)n2Cc1c(F)cccc1F,260 to 261 °C
27,COc1ccc(COc2cccnc2NC(=S)Nc2ccccc2)cc1,123 to 125 °C
